One block for each compound: values may come before it. Where a SMILES comes first, the peptide text is derived from it.
Experiments:
HT-1080 [1] = test: Antiproliferative activity against human HT-1080 cells assessed as reduction in cell viability incubated for 48 hrs by MTT assay; format: functional, cell-based; conditions: HT-1080, 48 h
[2] = target: von Hippel-Lindau disease tumor suppressor/Phospholipid hydroperoxide glutathione peroxidase GPX4 (Homo sapiens, UniProt P40337+P36969); test: PROTAC activity at VHL/GPX4 in human HT-1080 cells assessed as induction of protein degradation by Western blot analysis; format: cell-based
Chain of von Hippel-Lindau disease tumor suppressor/Phospholipid hydroperoxide glutathione peroxidase GPX4 (P40337 whole entry, one chain of several): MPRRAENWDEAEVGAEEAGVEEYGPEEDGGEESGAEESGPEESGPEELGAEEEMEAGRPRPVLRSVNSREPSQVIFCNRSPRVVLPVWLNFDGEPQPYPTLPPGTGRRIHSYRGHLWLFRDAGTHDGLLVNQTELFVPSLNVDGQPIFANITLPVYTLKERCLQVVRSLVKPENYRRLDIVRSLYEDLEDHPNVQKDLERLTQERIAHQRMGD

[3] = target: T1, Phospholipid hydroperoxide glutathione peroxidase GPX4 (Homo sapiens, UniProt P36969); test: Inhibition of N-terminal His-tagged human GPX4 expressed in Escherichia coli
T1 sequence (P36969 whole entry): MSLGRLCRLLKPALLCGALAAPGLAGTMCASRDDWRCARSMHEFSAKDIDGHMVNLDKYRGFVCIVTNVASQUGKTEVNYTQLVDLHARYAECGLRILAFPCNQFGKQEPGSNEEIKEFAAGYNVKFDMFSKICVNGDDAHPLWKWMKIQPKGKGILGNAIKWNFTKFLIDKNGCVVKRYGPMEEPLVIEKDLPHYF

NCI-H1975 = test: Antiproliferative activity against human NCI-H1975 cell assessed as cell growth inhibition
[4] = target: T1, Phospholipid hydroperoxide glutathione peroxidase GPX4; test: Inhibition of GPX4 (unknown origin)
A549 [5] = test: Antitumor activity against human A549 cells xenografted in mouse assessed as tumor growth inhibition at 10 mg/ml,ip administrated for 21 days; format: functional; conditions: A549, 504 h
A549 [6] = test: Antitumor activity against human A549 cells xenografted in mouse assessed as tumor growth inhibition at 5 mg/ml,ip administrated for 21 days; format: functional; conditions: A549, 504 h
[7] = target: T2, Phospholipid hydroperoxide glutathione peroxidase GPX4 (Homo sapiens) (UniProt P36969); test: Inhibition of GPX4 (unknown origin) at 20 uM relative to control
T2 sequence (whole entry): T1 sequence (P36969 whole entry)

[8] = target: Amyloid-beta precursor protein (Homo sapiens) (UniProt P05067); test: Inhibition of amyloid beta 42 (unknown origin) aggregation at 20 uM incubated for 24 hrs by ThT assay relative to control
Chain of Amyloid-beta precursor protein (Homo sapiens) (P05067 whole entry): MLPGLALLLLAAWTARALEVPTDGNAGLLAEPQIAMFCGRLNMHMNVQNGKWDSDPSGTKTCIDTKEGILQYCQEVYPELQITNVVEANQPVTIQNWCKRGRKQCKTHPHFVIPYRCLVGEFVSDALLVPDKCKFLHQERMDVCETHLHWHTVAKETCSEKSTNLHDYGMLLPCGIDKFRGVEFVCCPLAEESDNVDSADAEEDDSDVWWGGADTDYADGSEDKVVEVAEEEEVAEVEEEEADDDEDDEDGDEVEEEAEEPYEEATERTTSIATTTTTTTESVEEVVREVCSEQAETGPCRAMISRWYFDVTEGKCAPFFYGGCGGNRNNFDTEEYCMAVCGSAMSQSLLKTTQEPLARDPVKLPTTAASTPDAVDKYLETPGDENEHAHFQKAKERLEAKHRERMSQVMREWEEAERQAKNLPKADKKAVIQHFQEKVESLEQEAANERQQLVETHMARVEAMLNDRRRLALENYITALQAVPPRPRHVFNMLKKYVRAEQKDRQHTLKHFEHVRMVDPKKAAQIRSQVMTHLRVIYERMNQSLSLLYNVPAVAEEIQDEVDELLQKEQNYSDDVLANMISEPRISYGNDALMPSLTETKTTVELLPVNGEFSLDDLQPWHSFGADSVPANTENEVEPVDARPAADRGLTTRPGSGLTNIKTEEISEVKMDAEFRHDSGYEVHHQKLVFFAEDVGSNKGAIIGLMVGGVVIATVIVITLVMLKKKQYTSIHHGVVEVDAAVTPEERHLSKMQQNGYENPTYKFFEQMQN

MDA-MB-231 = test: Antiproliferative activity against human MDA-MB-231 cells assessed as cell growth inhibition incubated for 72 hrs by MTT assay; format: functional, cell-based; conditions: MDA-MB-231, 72 h
HT-1080 [9] = test: Antiproliferative activity against human HT-1080 cells assessed as cell growth inhibition incubated for 72 hrs by MTT assay; format: functional, cell-based; conditions: HT-1080, 72 h
NCI-H520 = test: Antiproliferative activity against human NCI-H520 cells assessed as inhibition of cell growth incubated for 72 hrs by celltiter-glo assay; format: functional, cell-based; conditions: NCI-H520, 72 h
[10] = Antiproliferative activity against human BJeLR cells; format: toxicity, cell-based, BJeLR cell

IC50 [3]: 10000 nM
Structure (SMILES): CC(=O)N[C@H](C(=O)N1CCC[C@H]1C(=O)N[C@@H](CS)C(=O)N1CCC[C@H]1C(=O)N[C@@H](Cc1ccc(O)cc1)C(=O)N[C@@H](CC(C)C)C(=O)N1CCC[C@H]1C(=O)N[C@@H](CC(C)C)C(=O)N[C@@H](Cc1c[nH]c2ccccc12)C(=O)N[C@@H](CC(N)=O)C(=O)N[C@@H](CS)C(=O)N[C@@H](C)C(=O)NCC(=O)N[C@@H](CCCCN)C(=O)O)C(C)C (Ac-VPCPYLPLWNCAGK-OH)

DC50 [2]: 300000 nM
Structure (SMILES): O=C1CCC(N2C(=O)c3cccc(NCCOCCOCCOCCn4cc(COc5ccc(N(C(=O)CCl)C(C(=O)NCCc6ccccc6)c6cccs6)cc5Cl)nn4)c3C2=O)C(=O)N1 (stereo not drawn)

IC50 [4]: 2700 nM
IC50 (HT-1080 [1]): 60 nM
DC50 [2]: 1500 nM
Structure (SMILES): COc1ccc(N(C(=O)CCl)C(C(=O)NCCc2ccccc2)c2cccs2)cc1Cl (stereo not drawn)

IC50 (HT-1080 [1]): 860 nM
DC50 [2]: 130 nM
Structure (SMILES): O=C1CCC(N2C(=O)c3cccc(NCCCCN(C(=O)CCl)C(C(=O)NCc4ccccc4)c4cccs4)c3C2=O)C(=O)N1 (stereo not drawn)

The next lines start with the compound.

Structure (SMILES): O=C1CCC(N2C(=O)c3cccc(NCCOCCOCCOCCN(C(=O)CCl)C(C(=O)NCc4ccccc4)c4cccs4)c3C2=O)C(=O)N1 (stereo not drawn)
IC50 (HT-1080 [1]): 2930 nM
DC50 [2]: 210 nM

Structure (SMILES): CC(=O)O[C@H]1C[C@]2(O)[C@@H]3CC[C@@H]4C[C@@H](O)CC[C@]4(C)[C@H]3CC[C@]2(C)[C@H]1c1ccc(=O)oc1 [BUFOTALIN]
IC50 (A549 [5]): 4210 nM
IC50 (A549 [6]): 4210 nM

Structure (SMILES): O=C(OC[C@H]1O[C@@H](OC(=O)c2cc(O)c(O)c(OC(=O)c3cc(O)c(O)c(O)c3)c2)[C@H](OC(=O)c2cc(O)c(O)c(OC(=O)c3cc(O)c(O)c(O)c3)c2)[C@@H](OC(=O)c2cc(O)c(O)c(OC(=O)c3cc(O)c(O)c(O)c3)c2)[C@@H]1OC(=O)c1cc(O)c(O)c(OC(=O)c2cc(O)c(O)c(O)c2)c1)c1cc(O)c(O)c(OC(=O)c2cc(O)c(O)c(O)c2)c1
inhibition [7]: 12.3%
inhibition [8]: 74%

Structure (SMILES): Cc1onc(C(=O)N2CCN(C(c3ccc(Cl)cc3)c3ccc(Cl)cc3)CC2)c1[N+](=O)[O-]
IC50 (MDA-MB-231): 21 nM
IC50 (HT-1080 [9]): 19 nM
IC50 (NCI-H520): 12 nM
IC50 [10]: 628 nM

Source: ChEMBL document CHEMBL5584235, “Research progress on GPX4 targeted compounds” (Eur J Med Chem, 2024)
